In ChEMBL document CHEMBL1158330, “Two new puriniums and three new pyrimidines from Heterostemma brownii” (J Nat Prod, 1997):

Tests used:
MOLT-4 [1] = test: Cytotoxicity against human MOLT4 cells at 1 uM after 72 hrs by MTT assay relative to control; format: functional; conditions: MOLT-4, 72 h
HL-60 [2] = test: Cytotoxicity against human HL60 cells at 1 uM after 72 hrs by MTT assay relative to control; format: functional; conditions: HL-60, 72 h
[3] = Cytotoxicity against human HCE6 cells at 1 uM after 72 hrs by MTT assay relative to control; format: functional; conditions: HCE6, 72 h
HL-60 [4] = test: Cytotoxicity against human HL60 cells at 1000 uM after 72 hrs by MTT assay relative to control; format: functional; conditions: HL-60, 72 h
K562 [5] = test: Cytotoxicity against human K562 cells at 1 uM after 72 hrs by MTT assay relative to control; format: functional; conditions: K562, 72 h
[6] = Cytotoxicity against human HCE6 cells at 10 uM after 72 hrs by MTT assay relative to control; format: functional; conditions: HCE6, 72 h
K562 [7] = test: Cytotoxicity against human K562 cells at 100 nM after 72 hrs by MTT assay relative to control; format: functional; conditions: K562, 72 h
HL-60 [8] = test: Cytotoxicity against human HL60 cells at 10 uM after 72 hrs by MTT assay relative to control; format: functional; conditions: HL-60, 72 h
HL-60 [9] = test: Cytotoxicity against human HL60 cells at 100 uM after 72 hrs by MTT assay relative to control; format: functional; conditions: HL-60, 72 h
MOLT-4 [10] = test: Cytotoxicity against human MOLT4 cells at 100 uM after 72 hrs by MTT assay relative to control; format: functional; conditions: MOLT-4, 72 h
HL-60 [11] = test: Cytotoxicity against human HL60 cells after 72 hrs by MTT assay; format: functional, cell-based; conditions: HL-60, 72 h
Huh-7 [12] = test: Cytotoxicity against human HuH7 cells at 10 uM after 72 hrs by MTT assay relative to control; format: functional; conditions: Huh-7, 72 h
K562 [13] = test: Cytotoxicity against human K562 cells at 1000 uM after 72 hrs by MTT assay relative to control; format: functional; conditions: K562, 72 h
K562 [14] = test: Cytotoxicity against human K562 cells after 72 hrs by MTT assay; format: functional, cell-based; conditions: K562, 72 h
Huh-7 [15] = test: Cytotoxicity against human HuH7 cells at 1000 uM after 72 hrs by MTT assay relative to control; format: functional; conditions: Huh-7, 72 h
Huh-7 [16] = test: Cytotoxicity against human HuH7 cells at 100 nM after 72 hrs by MTT assay relative to control; format: functional; conditions: Huh-7, 72 h
K562 [17] = test: Cytotoxicity against human K562 cells at 100 uM after 72 hrs by MTT assay relative to control; format: functional; conditions: K562, 72 h
[18] = Cytotoxicity against human HCE6 cells after 72 hrs by MTT assay; format: functional, cell-based; conditions: HCE6, 72 h
MOLT-4 [19] = test: Cytotoxicity against human MOLT4 cells at 1000 uM after 72 hrs by MTT assay relative to control; format: functional; conditions: MOLT-4, 72 h
Huh-7 [20] = test: Cytotoxicity against human HuH7 cells after 72 hrs by MTT assay; format: functional, cell-based; conditions: Huh-7, 72 h
[21] = Cytotoxicity against human HCE6 cells at 100 uM after 72 hrs by MTT assay relative to control; format: functional; conditions: HCE6, 72 h
[22] = Cytotoxicity against human HCE6 cells at 100 nM after 72 hrs by MTT assay; format: functional; conditions: HCE6, 72 h
HL-60 [23] = test: Cytotoxicity against human HL60 cells at 100 nM after 72 hrs by MTT assay relative to control; format: functional; conditions: HL-60, 72 h
Huh-7 [24] = test: Cytotoxicity against human HuH7 cells at 100 uM after 72 hrs by MTT assay relative to control; format: functional; conditions: Huh-7, 72 h
Huh-7 [25] = test: Cytotoxicity against human HuH7 cells at 1 uM after 72 hrs by MTT assay relative to control; format: functional; conditions: Huh-7, 72 h
[26] = Cytotoxicity against human HCE6 cells at 1000 uM after 72 hrs by MTT assay relative to control; format: functional; conditions: HCE6, 72 h
MOLT-4 [27] = test: Cytotoxicity against human MOLT4 cells at 10 uM after 72 hrs by MTT assay relative to control; format: functional; conditions: MOLT-4, 72 h
MOLT-4 [28] = test: Cytotoxicity against human MOLT4 cells at 100 nM after 72 hrs by MTT assay relative to control; format: functional; conditions: MOLT-4, 72 h
K562 [29] = test: Cytotoxicity against human K562 cells at 10 uM after 72 hrs by MTT assay relative to control; format: functional; conditions: K562, 72 h
MOLT-4 [30] = test: Cytotoxicity against human MOLT4 cells after 72 hrs by MTT assay; format: functional, cell-based; conditions: MOLT-4, 72 h

| Compound | viability at 1 µM (MOLT-4 [1]) [%] | viability at 1 µM (HL-60 [2]) [%] | viability at 1 µM [3] [%] | viability at 1000 µM (HL-60 [4]) [%] | viability at 1 µM (K562 [5]) [%] | viability at 10 µM [6] [%] | viability at 0.1 µM (K562 [7]) [%] | viability at 10 µM (HL-60 [8]) [%] | viability at 100 µM (HL-60 [9]) [%] | viability at 100 µM (MOLT-4 [10]) [%] | IC50 (HL-60 [11]) [µM] | viability at 10 µM (Huh-7 [12]) [%] | viability at 1000 µM (K562 [13]) [%] | IC50 (K562 [14]) [µM] | viability at 1000 µM (Huh-7 [15]) [%] | viability at 0.1 µM (Huh-7 [16]) [%] | viability at 100 µM (K562 [17]) [%] | IC50 [18] [µM] | viability at 1000 µM (MOLT-4 [19]) [%] | IC50 (Huh-7 [20]) [µM] | also measured |
| --- | --- | --- | --- | --- | --- | --- | --- | --- | --- | --- | --- | --- | --- | --- | --- | --- | --- | --- | --- | --- | --- |
| COc1nc(N(C)C)nc2c1[n+](C)cn2C [HETEROMINE A] | 90.7 | 99.3 | 87.4 | 5.7 | 107 | 26.2 | 94.3 | 42.7 | 8.2 | 24.8 | 7.43 | 91.1 | 5.9 | 9.88 | 11.1 | 97.3 | 33.5 | 4.08 | 5.6 | 71.8 | viability at 100 µM [21]: 8.2%; viability at 0.1 µM [22]: 92.4%; viability at 0.1 µM (HL-60 [23]): 94.5%; viability at 100 µM (Huh-7 [24]): 43.1%; viability at 1 µM (Huh-7 [25]): 102%; viability at 1000 µM [26]: 1.7%; viability at 10 µM (MOLT-4 [27]): 54.8%; viability at 0.1 µM (MOLT-4 [28]): 94.7%; viability at 10 µM (K562 [29]): 49.7%; IC50 (MOLT-4 [30]): 14.4 µM |
| CNc1nc(OC)c2c(n1)n(C)c[n+]2C [HETEROMINE B] | 91 | 99.1 | 82.2 | 14.9 | 95.5 | 85 | 96.8 | 72.6 | 20.3 | 35.9 | 27 | 94.3 | 27.6 | 62.9 | 28.8 | 104 | 40.4 | 36 | 17.4 | 464 | viability at 100 µM [21]: 22.1%; viability at 0.1 µM [22]: 82.2%; viability at 0.1 µM (HL-60 [23]): 114%; viability at 100 µM (Huh-7 [24]): 92.5%; viability at 1 µM (Huh-7 [25]): 103%; viability at 1000 µM [26]: 10.6%; viability at 10 µM (MOLT-4 [27]): 86%; viability at 0.1 µM (MOLT-4 [28]): 107%; viability at 10 µM (K562 [29]): 88.2%; IC50 (MOLT-4 [30]): 52.3 µM |
